From patent publication US20220096515A1, “Methods and Formulations for Preventing Neurological or Psychiatric Disorders” (Huntington Medical Research Institutes, priority 2020, published 2022)

How the values were obtained:
[1] = tested on: periventricular endothelial cells isolated from E15 wildtype (CD1) forebrain; assay: Endothelial cell proliferation in culture (confluency, BrdU labeling index); format: cell-based, mouse
Method: (§1) Primary culture of endothelial cells and endothelial cell staining: Embryonic brains were dissected under a stereo-microscope, after the NAD^+ treatment paradigm and the telencephalon was removed. Pial membranes were peeled off. Telencephalon without pial membranes from the periventricular region was pooled. Purity of endothelial cell cultures was established with endothelial cell markers and determined to be one hundred percent. Isolation and culture of endothelial cells were performed according to published methodology. Periventricular endothelial cells were prepared from CD1 (wild type), saline-treated Gabrb3^fl/fl, saline-treated Gabrb3^ECKO, and NAD^+-treated Gabrb3^ECKO embryos. Endothelial cells were labeled with anti-biotinylated isolectinB4 (1:100, Sigma), anti-GABA (1:400, Sigma), anti-DAXX (1:100, Santa Cruz Biotechnology) and anti-P2X4 (1:100, Abclonal) followed by secondary detection with AlexaFluor conjugates (Invitrogen). DAPI (Invitrogen) was used to label nuclei. Images were taken on an FSX100 microscope (Olympus). 1 million cells were examined for each immunohistochemistry condition.
Endothelial cell proliferation and long-distance cell migration assay: To test for cell proliferation, CD1 periventricular endothelial cells (1 million cells per experiment) were incubated in the presence of the mitotic marker 5-bromo-2′-deoxyuridine (0.05% BrdU) with or without muscimol, for 1 hour to examine the impact on proliferation of these cells and processed for BrdU immunohistochemistry.
In one experiment, periventricular endothelial cells were isolated from E15 wildtype (CD1) forebrain and tested the effect of NAD^+ addition in vitro. Exogenous addition of 100 μM NAD^+ was able to initiate significant endothelial cell proliferation within 2 days of culture and a 35 mm culture dish was confluent within 4-6 days (FIGS. 2A-2D). This was an interesting observation, since untreated periventricular endothelial cells take approximately 12 days to reach confluency in 35mm dishes, in our well-established culture conditions. […] Vital elements of angiogenesis include effective endothelial cell proliferation, migration, sprouting, alignment, tube formation and branching. […] In some areas of the dish, the NAD^+-treated endothelial cells seemed to align and fold into tubular shapes (FIG. 2H), aspects that we have not seen in wild type or untreated periventricular endothelial cells in normal culture conditions.
Effects of NAD^+ addition to periventricular endothelial cells isolated from E15 wildtype (CD1) forebrain was more robust than GABA. (FIGS. 17A-17F) Phase contrast images of periventricular endothelial cells cultured from E15 CD1 forebrain at different time points in untreated conditions (FIGS. 17A-17B) or after plating with NAD^+ addition (100 μM; FIGS. 17C-17D) or GABA addition (5 μM; FIGS. 17E-17F). […] (FIG. 17G) All groups of periventricular endothelial cells were exposed to BrdU (1 mM BrdU per ml medium) for 1 hour followed by Isolectin B4/BrdU double labeling. Quantification of BrdU labeling indices; Data represents mean±SD (n=8, *P<0.05; Student's t-test).

Gabrb3^fl/fl mice = assay: Nesting and grooming behavior of NAD+ treated Gabrb3^fl/fl mice; format: in vivo, mouse; conditions: NAD+ vs saline treated Gabrb3^fl/fl mice
Method: Certain embodiments treat an individual at a dosage of approximately 10 mg/kg—for example, for a 60-70 kg human, a dosage would be approximately 600-700 mg. Some embodiments treat at a dosage higher than 10 mg/kg, such as up to 40 mg/kg. In many embodiments excess NAD+ may be removed from the body without deleterious effects. FIGS. 1D-1F illustrate exemplary data showing no deleterious effects from treating wildtype mice with NAD+. […] As excess NAD+ may be removed without significant effect to a treated individual, some embodiments treat a person prophylactically.
(§2) Behavioral Experiments: Mice were housed in our animal facility with a 12-hour light cycle with ad libitum access to food and water. Offspring stayed with their mothers until weaning at PND 21 after which males and females were separated. Before all behavioral testing, mice were acclimated to the testing room for 1 hour. Behavioral assays were performed according to established protocols referenced here: self-grooming, light-dark box, tail suspension test, Y-maze, open field locomotion activity, three chamber social interaction test and nest building with nestlets and with shredded paper. Both males and females were used for all behavioral assays. Experimenters scoring behaviors were blinded to the genotypes and treatment. Sample sizes for each assay are noted in figure legends.

Gabrb3^ECKO mice [2] = assay: Open field locomotor activity; format: in vivo, mouse; conditions: 60 minutes; between the three groups
Method: as §2
Anxiety was next assessed with the classic light-dark transition test which triggers a struggle between the desires to explore a novel environment versus natural aversion of a brightly illuminated open space. […] The Y maze spontaneous alternation test was used to evaluate for spatial learning and memory in the three groups of mice. After introduction to the center of the maze, the mice were given free access to all three arms. […] The total number of arm entries and the sequence of entries are recorded in order to calculate the percentage of alternation. […]

Gabrb3^ECKO mice [3] = assay: Three-chamber social communication test; format: in vivo, mouse
Method: as §2
This is indicative of rescue of social motivation, memory and novelty exploration in NAD^+-treated Gabrb3^ECKO mice (FIG. 14L).

[4] = tested on: periventricular endothelial cells isolated from E15 wildtype (CD1) forebrain; assay: Tube formation under normal culture conditions (no Matrigel); format: cell-based, mouse; conditions: absence of Matrigel
Method: as §1
In one experiment, periventricular endothelial cells were isolated from E15 wildtype (CD1) forebrain and tested the effect of NAD^+ addition in vitro. […]

NC(=O)c1ccc[n+]([C@@H]2O[C@H](COP(=O)([O-])OP(=O)(O)OC[C@H]3O[C@@H](n4cnc5c(N)ncnc54)[C@H](O)[C@@H]3O)[C@@H](O)[C@H]2O)c1 [NAD^+]
endothelial cell proliferation (phase contrast) ([1]; 100 μM): Robust proliferation | time to initiate significant endothelial cell proliferation ([1]; 100 μM NAD^+, days of culture): ≤ 2 days | time until 35 mm culture dish was confluent ([1]; 100 μM NAD^+, untreated cells approximately 12 days): 4 to 6 days | endothelial cell BrdU labeling index ([1]; NAD^+ addition vs untreated): significantly increased | grooming behavior (Gabrb3^fl/fl mice): no significant change in grooming behavior | nesting behavior (Gabrb3^fl/fl mice; untorn nestlet and shredded paper): no significant difference in nesting behavior | open field locomotor activity (Gabrb3^ECKO mice [2]): no significant differences | sociability: stranger mouse vs inanimate object (Gabrb3^ECKO mice [3]; sociability phase): interacted with the stranger mouse for a significantly longer duration than with the inanimate object | social novelty: stranger 2 vs familiar stranger 1 (Gabrb3^ECKO mice [3]; social novelty phase): marked preference for stranger 2 | tube formation [4]: started showing tube formation properties under normal culture conditions
